Source: publication PMC11851433, “Novel Quinazoline Derivatives Inhibit Splicing of Fungal Group II Introns” (ACS Chemical Biology, 2025)
Values after ≈ are worked out from the molar mass of the structure shown. Read-outs that look alike come from different tables or passages of the source.

How the values were obtained:
ai5γ group II intron [1] = assay: Radioanalytic in vitro splicing assay, splicing inhibition constants; type: biochemical, Saccharomyces cerevisiae; conditions: for improvement of inhibitory activity (Ki) relative to compound 3: vs compound 3
Experimental: Internally ^32P-labeled ai5γ intron RNA with short exons[54] was in vitro transcribed in the presence of ^32P-α-UTP using T7 RNA polymerase and purified on a 5% denaturing polyacrylamide gel as described.[55] Large-scale transcription of the […] ribozyme, utilized for HTS, was carried out as previously described.[56] Splicing inhibition constants were determined as previously described[33],[34] with the following change in the experimental procedure: reactions were carried out in a buffer of 50 mM MOPS pH 7.5, 100 mM MgCl2, and 500 mM KCl at 42 °C. Aliquots of the reaction mixture were withdrawn at different time points, quenched, and analyzed on a 5% denaturing polyacrylamide gel as previously described.[55] Inhibition constants were determined as previously described.[33],[34] Experiments were performed twice to ensure reproducibility. Data represent average ± s.e.m.

[2] = tested on: C. parapsilosis COX1 precursor mRNA splicing; assay: In cellulo analysis of group II intron splicing by qRT-PCR; type: cell-based, Candida parapsilosis; conditions: compound 64 μg/mL, PGK1 as standard
Experimental: C. parapsilosis (ATCC: 22019) growth and harvest was performed essentially as described[33] with the following modifications. Compounds dissolved in DMSO were added to individual cultures to a final concentration of 64 μg/mL. Total RNA was isolated using an E.Z.N.A Fungal RNA Mini Kit (Omega Bio-tek) according to the manufacturer’s protocol. The RNA was eluted in 50 μL of a 1:100 mixture of SUPERaseIn RNase inhibitor (Thermo Fisher): MOPS-EDTA (ME) buffer [10 mM MOPS (pH 6.5), 0.1 mM Na-EDTA (pH 8.5)] followed by DNase treatment with RQ1 DNase (Promega) for 30 min at 37 °C. Then, the reaction was mixed with 7 μL of 3 M NaOAc and precipitated with 80% EtOH at –20 °C. The recovered RNA was resuspended in 30 μL of 1:100 mixture of SUPERaseIn RNase inhibitor/ME buffer. Next, 200 ng of Random Hexamer Primers (Thermo Fisher) was annealed to 10 ng of RNA in 11 μL at 65 °C for 5 min. The annealing reaction mixture was then cooled to RT, followed by the addition of 9 μL of a SuperScript III (Thermo Fisher) master mix: 1X First Strand Synthesis Buffer, 0.5 mM dNTPs (NEB: N0447S), 5 mM DTT, 10U SUPERaseIn RNase inhibitor, and 100 U SuperScript III. Manufacturer reverse transcription conditions were used, followed by an inactivation step at 75 °C for 15 min. After reverse transcription, RNA was degraded by adding 1.5 μL of a 1:1:1 mixture of RNase H (NEB), RNase A (NEB), and RNase T1 (Thermo Fisher) and incubating at 37 °C for 30 min. The cDNA was then purified using AMPure beads (Beckman Coulter) at a 1.8× bead-to-sample ratio according to the manufacturer’s protocol. Purified cDNA was eluted in 30 μL of nuclease-free water. Real-time PCR quantification of cDNA and subsequent determination of the relative levels of PGK1, COX1 (total), and COX1 (unspliced) from different conditions were performed in duplicate with three independent samples as previously described.[33]

C. parapsilosis = assay: MIC determination for C. parapsilosis (CLSI M27-A3); type: cell-based, Candida parapsilosis; conditions: for MIC: Lodderomyces parapsilosis; for MIC C. parapsilosis: Supplementary table 1
Experimental: C. parapsilosis [strain American Type Culture Collection (ATCC) 22019] was purchased from ATCC and cultured according to the manufacturer’s instructions. S. cerevisiae wild-type (NP40-36a) and mtDNA intronless (XPM46) strains were a gift from Dr. Thomas Fox (Dept. of Molecular Biology and Genetics, Cornell University).[44] MICs for C. parapsilosis were determined as previously described[33] according to the guidelines from the protocol M27-A3 from the Clinical and Laboratory Standards Institute (CLSI).[59] All experiments were performed in triplicate.

HEK-293T cells = assay: Cytotoxicity in HEK-293T cells (Cell Titer Glo); type: cell-based; conditions: Homo sapiens, read-out: IC50 for cell growth inhibition
Experimental: For the cytotoxicity experiments, cells were aliquoted into black 96-well plates with a clear bottom (Corning 3603), grown, treated with the inhibitors, and subjected to the Cell Titer Glo cell viability assay (Promega) as previously described.[33] All experiments were performed in triplicate.

ai5γ group II intron [3] = biological target: ai5γ group II intron; design: method as in PMID 30323219; conditions: for comparison; read-out: Ki of previously published inhibitors; cited from earlier work
[4] = tested on: C. parapsilosis COX1 precursor mRNA splicing; design: method as in PMID 30323219; conditions: for comparison; cited from earlier work
WT S. cerevisiae strain = assay: Inhibition of S. cerevisiae growth, WT strain; type: cell-based, Saccharomyces cerevisiae
Experimental: (§1) C. parapsilosis [strain American Type Culture Collection (ATCC) 22019] was purchased from ATCC and cultured according to the manufacturer’s instructions. S. cerevisiae wild-type (NP40-36a) and mtDNA intronless (XPM46) strains were a gift from Dr. Thomas Fox (Dept. of Molecular Biology and Genetics, Cornell University).[44]
(§2) Reduction of yeast growth in the presence of inhibitor molecules was assayed either in liquid YPD media (BD Bacto Yeast Extract, BD Bacto Peptone, 2% glucose) or in YPG media (BD Bacto Yeast Extract, BD Bacto Peptone, 3% glycerol), as previously described[33],[34],[59] with the following adaptations. Yeast cultures were grown for 24 h in YPD medium and for […] in YPG medium. All experiments were performed in triplicate to ensure reproducibility.

[5] = tested on: COX1 intronless S. cerevisiae strain; assay: Inhibition of S. cerevisiae growth, COX1 intronless strain; type: cell-based, Saccharomyces cerevisiae
Experimental: as §1, §2

D135 ribozyme = assay: HTS / dose–response intron activity assay (fluorescently labeled substrate, D135 ribozyme); type: biochemical, Saccharomyces cerevisiae; conditions: 10 concentrations, highest 100 μM, 1:3 serial dilution
Experimental: The RNA oligonucleotide substrate for HTS, containing the last 17 nucleotides of the native 5′-exon and the first two nucleotides of the ai5γ intron,[33] was synthesized on a MerMade 12 RNA-DNA synthesizer (BioAutomation) using TBDMS RNA phosphoramidites (TxBio), aminomodifier C6dT, and Black Hole Quencher 2 CPG (Glen Research). For base deprotection, the oligonucleotide was treated with 30% ammonium hydroxide (JT Baker) for 24 h at RT. The 2’–OH deprotection and oligonucleotide purification were carried out as described.[57],[58] Fluorescent labeling of the substrate with the NHS ester of AlexaFluor 555 was carried out as described.[33]
HTS was carried out by CRL using the fluorescently labeled substrate, unlabeled D135 ribozyme (see above), and a proprietary library of ∼1,50,000 compounds using assay conditions previously described,[33] with the following adaptations. The D135 ribozyme (20 nM final concentration) was first prefolded in a buffer of 50 mM MOPS, pH 7.5, 50 mM MgCl2, and 500 mM KCl at 37 °C for 30 min. Library compounds were then added at 12.5 μM final concentration followed by addition of the substrate (to 15 nM final concentration), and the reaction mixtures were incubated at 37 °C for 40 min. Reactions were was quenched by addition of urea (2.67 M final) and analyzed as described. […]

[6] = Figure 3, 100 mM MgCl2, 500 mM KCl, 42 °C, read-out: Ki for the in vitro splicing of the ai5γ intron
[7] = Supplementary table 1, read-out: Ki ai5γ intron

Clc1cccc(CNc2nc(-c3ccccn3)nc3cc(Cl)ccc23)c1 [compound 19]
Ki (ai5γ group II intron [1]; [6]): 1.4 ± 0.4 µM
effect on splicing of C. parapsilosis COX1 (unspliced relative to total COX1 mRNA) [2]: remained unchanged

c1ccc(-c2nc(Nc3ccc4c(c3)OCO4)c3ccccc3n2)nc1 [compound 12]
Ki (ai5γ group II intron [1]; [7]): 11 ± 2 µM
increase in inhibitory activity relative to compound 1 (ai5γ group II intron [1]; vs compound 1): 3 fold

Clc1cccc(CNc2nc(-c3ccccn3)nc3ccccc23)c1 [compound 17]
Ki (ai5γ group II intron [1]; [7]): 2.6 ± 0.5 µM
improvement of inhibitory activity (Ki) relative to compound 3 (ai5γ group II intron [1]): 30 fold
MIC in C. parapsilosis (C. parapsilosis): 2 µg/mL (≈ 5.77 µM)
MIC (C. parapsilosis): 2 to 8 µg/mL (≈ 5.77 to 23.1 µM)
effect on splicing of C. parapsilosis COX1 (unspliced relative to total COX1 mRNA) [2]: moderate defects
IC50 (HEK-293T cells): 3.9 ± 0.1 µg/mL (≈ 11.2 µM)

CC(C)(C)c1cccc(CNc2nc(-c3ccccn3)nc3ccccc23)c1 [compound 15]
Ki (ai5γ group II intron [1]; [7]): 6.4 ± 1.9 µM
improvement of inhibitory activity (Ki) relative to compound 3 (ai5γ group II intron [1]): more than 10 fold

c1ccc(CNc2ncnc3ccccc23)cc1 [compound 7]
Ki (ai5γ group II intron [1]; [7]): > 100 µM

COc1cccc(CNc2ncnc3ccccc23)c1 [compound 5]
Ki (ai5γ group II intron [1]; [7]): > 100 µM
MIC C. parapsilosis (C. parapsilosis): 16 µg/mL (≈ 60.3 µM)

CC(=O)c1ccc(-c2ccc3oc(C(=O)c4cc(O)c(O)c(O)c4)cc3c2)cc1 [intronistat A]
Ki (ai5γ group II intron [3]): 2.1 ± 0.2 µM

COc1ccc(Nc2ncnc3ccccc23)cc1 [compound 4]
Ki (ai5γ group II intron [1]; [7]): > 100 µM

COc1cccc(CNc2nc(-c3ccccn3)nc3ccccc23)c1 [compound 2]
Ki (ai5γ group II intron [1]; [7]): 55 ± 19 µM
MIC C. parapsilosis (C. parapsilosis): > 128 µg/mL

Nc1nc(-c2ccccn2)nc2ccccc12 [compound 8]
Ki (ai5γ group II intron [1]; [7]): > 100 µM

CC(C)(C)c1ccc(Nc2nc(-c3ccncc3)nc3ccccc23)cc1 [compound 11]
inhibitory activity in the splicing assay (in words) (ai5γ group II intron [1]): completely abolishes activity
Ki (ai5γ group II intron [1]; [7]): > 100 µM

C[C@@H]1[C@H](O)[C@@H](C)/C=C/C=C/C=C/C=C/C=C/C=C/C=C/[C@H](O[C@@H]2O[C@H](C)[C@@H](O)[C@H](N)[C@@H]2O)C[C@@H]2O[C@](O)(C[C@@H](O)C[C@@H](O)[C@H](O)CC[C@@H](O)C[C@@H](O)CC(=O)O[C@H]1C)C[C@H](O)[C@H]2C(=O)O [amphotericin B, reference compound]
IC50 (HEK-293T cells): 2.6 ± 0.2 µg/mL (≈ 2.81 µM)

c1ccc(CNc2nc(-c3ccccn3)nc3ccccc23)cc1 [compound 3]
Ki (ai5γ group II intron [1]; [7]): 77 ± 25 µM

CC(C)(C)c1ccc(Nc2nc(-c3ccccn3)nc3ccccc23)cc1 [compound 10]
Ki (ai5γ group II intron [1]; [7]): 11 ± 2 µM
MIC (C. parapsilosis): 2 to 8 µg/mL (≈ 5.64 to 22.6 µM)

O=C(NCCN1CCCC1)c1ccc2oc(C(=O)c3cc(O)c(O)c(O)c3)cc2c1 [intronistat B]
Ki (ai5γ group II intron [3]): 0.36 ± 0.02 µM
levels of unspliced vs total C. parapsilosis COX1 transcripts [4]: 1.5 fold

c1ccc(Nc2ncnc3ccccc23)cc1 [compound 6]
Ki (ai5γ group II intron [1]; [7]): > 100 µM

FC(F)(F)c1cccc(CNc2nc(-c3ccccn3)nc3cc(Cl)ccc23)c1 [compound 18]
Ki (ai5γ group II intron [1]; [7]): 20 ± 6 µM
drop in inhibitory activity relative to compound 16 (ai5γ group II intron [1]; vs compound 16): four-fold

c1ccc(-c2ncc3ccccc3n2)nc1 [compound 9]
Ki (ai5γ group II intron [1]; [7]): > 100 µM

c1ccc(-c2nc(N3Cc4ccccc4C3)c3ccccc3n2)nc1 [compound 14]
Ki (ai5γ group II intron [1]; [7]): 7.6 ± 1.7 µM
growth inhibition of WT vs COX1 intronless S. cerevisiae strain (WT S. cerevisiae strain; WT more strongly inhibited than intronless strain): eight-fold
MIC S. cerevisiae WT strain (WT S. cerevisiae strain; WT strain): 4 µg/mL (≈ 12.3 µM)
MIC S. cerevisiae intronless strain [5]: 32 µg/mL (≈ 98.6 µM)

FC(F)(F)c1cccc(CNc2nc(-c3ccccn3)nc3ccccc23)c1 [compound 16]
Ki (ai5γ group II intron [1]; [7]): 5.6 ± 0.6 µM
improvement of inhibitory activity (Ki) relative to compound 3 (ai5γ group II intron [1]): more than 10 fold
MIC in C. parapsilosis (C. parapsilosis): 4 µg/mL (≈ 10.5 µM)
MIC (C. parapsilosis): 2 to 8 µg/mL (≈ 5.26 to 21 µM)
MIC (WT S. cerevisiae strain; Saccharomyces cerevisiae): 16 µg/mL (≈ 42.1 µM)
MIC ([5]; Saccharomyces cerevisiae): 64 µg/mL (≈ 168 µM)
effect on splicing of C. parapsilosis COX1 (unspliced relative to total COX1 mRNA) [2]: moderate defects
IC50 (HEK-293T cells): 5.6 ± 0.1 µg/mL (≈ 14.7 µM)

COc1ccc(Nc2nc(-c3ccccn3)nc3ccccc23)cc1 [compound 1]
IC50 (D135 ribozyme): 3 µM
Ki (ai5γ group II intron [1]; [6]): 27 ± 6 µM
